The record followed here is a melting point compilation (Tetko et al.; mined from patent text by program, amines drawn as free bases though some values may be those of a salt).

The melting point is the temperature, or range, at which the solid turns liquid. As to `CSc1ccc(CN2CCC(=O)C(C(c3ccccc3)c3ccccc3)C2)cc1` (configuration not stated), the melting point lay in the range of 126 to 128 °C.

`CC(=O)OCC1Cc2c(C3=C(c4cn(C)c5ccccc45)C(=O)OC3=O)c3ccccc3n2C1` (configuration not stated) yielded a melting point of 208 to 211 °C.

`CCCCCCCCCCCCCCCCOCC(CO)Oc1cc(-c2ccccc2)on1` (configuration not stated) yielded a melting point of 45.5 to 46.5 °C.

On to `N#Cc1ccc(Nn2cnnc2)cc1-c1ccco1`, for which the melting point was in the range of 217 to 218 °C.

`CC(C)COc1ccc(C(=O)N/C(=C\c2ccc(OCC(F)(F)F)cc2)C(=O)NCCO)cc1` displayed a melting point of 176 to 178 °C.

Molecule `COC(=O)c1ccc(OCCNC(=O)C2Cc3ccccc3N2S(=O)(=O)c2ccc(-c3cccc(C(F)(F)F)c3)cc2)cc1C(F)(F)F` (configuration not stated) returned a melting point of 75 to 79 °C.

With `C=C1CC2C(CCC3(C)C2CCC3(O)C(C)=O)C2(C)CCC(=O)C=C12` (configuration not stated), the melting point lay within 218 to 220 °C.

Molecule `O=C(NCCSCc1ccc(Cl)cc1)c1c(Cl)cccc1Cl` gave a melting point of 104 to 106 °C.

In turn, `Cc1ccc(C(=O)NC(NC(=NC#N)Nc2cccnc2)C(Cl)(Cl)Cl)cc1` (configuration not stated) had a melting point of 165 to 166 °C.

For `CCOC(=O)c1nc2ccc(Cl)nn2c1C`, the melting point lay within 170 to 171 °C.

In turn, `Cc1nccc(N2CCN(C(=O)N3CCN(C(=O)OC(C)(C)C)CC3)CC2)n1` registered a melting point of 212 to 213 °C.

For the molecule `Cc1cc(Cl)n(-c2ccc(Cl)nn2)n1`, the melting point lay in the range of 123 to 126 °C.

In the case of `OC(c1ccc(Cl)cc1)(c1ccc(Cl)cc1)C1CCNCC1`, the melting point was 184 to 188 °C.

`COc1cnn(CN(C(=O)CCl)c2c(C)cccc2C)c1` had a melting point of 115 to 116 °C.

`O=C(NCCO)c1ccc(CCCc2ccccc2CCc2ccccc2)cc1` returned a melting point of 104 to 106 °C.

`CC(CN1C(=O)c2ccccc2C1=O)C(=NO)n1nc(C(C)(C)C)cc1N` (configuration not stated) gave a melting point of 198 to 199 °C.

In turn, `CCCOc1nc(NC(C)C(O)c2ccccc2)c2cnn(-c3ccccc3)c2n1` (configuration not stated) came in with a melting point of 136 to 138 °C.

Regarding `O=C(O)c1ccccc1CCc1cccc(Br)c1`, the melting point lay within 88 to 90 °C.

On to `CCCC(CCC)N(C[C@H]1CC[C@H](CN(C(=O)Nc2ccc(N(C)C)cc2)C(CCC)CCC)CC1)C(=O)Nc1ccc(N(C)C)cc1`, for which the melting point lay within 173 to 176 °C.

`CCCOc1cc(C(=O)O)cc([N+](=O)[O-])c1-c1ccccc1`: the melting point fell in the range of 142 to 144 °C.

The molecule `COC(=O)c1ccccc1OCCCn1c(C(=O)C2CCN(CCC3(c4ccccc4)CCN(C(=O)c4cc(OC)c(OC)c(OC)c4)C3)CC2)nc2ccccc21` (configuration not stated) registered a melting point of 74 to 80 °C.

Molecule `O=C(c1ccc(F)cc1)c1ccc2n1CCCC2C(=O)O` (configuration not stated) showed a melting point of 161 to 162 °C.

The molecule `Fc1ccc(CN2CCC(Nc3ccc(C(F)(F)F)nn3)CC2)cc1F` yielded a melting point of 168 to 169 °C.

The molecule `Cc1cc(-c2ccc(Cl)cc2)nn2c(C)nnc12` showed a melting point of 209 to 212 °C.

`CCOC(=O)C(=O)CC(=O)c1cn(Cc2cccc(OC)c2)c2ccccc2c1=O` returned a melting point of 177 to 179 °C.

In turn, `Cc1nc(-c2cccc(C(=O)Nc3ccc(Cl)cc3)c2)sc1C(=O)O` yielded a melting point of 246 to 248 °C.

`COc1cc(CCCN2CCc3cc(OC)c(OC)cc3C2)ccc1NC(=O)c1cccc2c(=O)c3cccc(OC)c3[nH]c12`: the melting point was determined as 188 °C.

`Cc1nc2c(OCc3c(Cl)ccc(S(=O)(=O)N4CCC[C@H]4C(=O)NCCCNC(=O)c4ccc(C#N)cc4)c3Cl)cccn2c1Cl` returned a melting point of 115 °C.

`Cc1ccnn1-c1c(Cl)cc(C(F)(F)F)cc1Cl` came in with a melting point of 78 to 84 °C.

Take `CC1CN(S(=O)(=O)c2cccc(C(=O)O)c2)C(C)CN1S(=O)(=O)c1cccc(C(=O)O)c1` (configuration not stated): the melting point lay within 223 to 227 °C.

As to `CSC(SC)=C1CCC2CC=CC=C2C1=O` (configuration not stated), the melting point was 54 to 56 °C.

For `O=C1N=NC(=O)N1c1c(F)c(F)c(F)c(F)c1F`, the melting point lay in the range of 88 to 91 °C.

`CC12CC(=O)NN=C1c1ccc(Br)cc1C2` (configuration not stated) registered a melting point of 242 °C.

Consider `Cn1nc2nc(C(C)(C)C)[nH]c(=O)c2c1N`, for which the melting point was 285 to 287 °C.

Molecule `COc1ccc(-c2cnn3c(N)c(-c4ccc(F)c(Cl)c4)c(C)nc23)cc1` had a melting point of 224 to 227 °C.

In turn, `N#Cc1cc(F)c(NN)cc1F` had a melting point of 158 °C.

The molecule `CN1CCn2c(-c3ccc(F)c(-c4ccc(F)cc4C#N)c3)cnc2C1=O` came in with a melting point of 224 °C.

In turn, `CCOC(=O)COc1ccc(C(C)=O)cc1NC(=O)c1ccc(OCCCCc2ccccc2)cc1` displayed a melting point of 105 to 107 °C.

Take `CCc1cc(C(=O)O)c(Nc2ccc(F)cc2[N+](=O)[O-])s1`: the melting point fell in the range of 198 to 200 °C.

Consider `Cc1cc(C(F)(F)F)cc(=O)n1C`, for which the melting point is 80 to 82 °C.

The molecule `CCCP(=O)(O)CC(=O)CNCc1ccccc1` yielded a melting point of 155 to 157 °C.

Regarding `O=C(Nc1nccs1)c1nc(-c2ccc(N3CCOCC3)cc2)[nH]c1-c1ccc(Cl)cc1`, the melting point is greater than 260 °C.

In the case of `O=C(O)CS(=O)(=O)Nc1ccc(F)c(C(F)(F)F)c1`, the melting point is 138 to 140 °C.

As to `CCCn1c(=O)c2c(nc(/C=C/c3cccs3)n2C)n(CCC)c1=O`, the melting point lay in the range of 185 to 186 °C.

In turn, `CC(NC(=O)CC(CNC(=O)OC(C)(C)C)c1ccc(Cl)c(Cl)c1)c1ccccc1` (configuration not stated) showed a melting point of 161 to 162 °C.

Molecule `CC(C)(C)OC(=O)Nc1ccc(C#Cc2ccc(Cl)cc2)cc1[N+](=O)[O-]` came in with a melting point of 213 to 218 °C.

For the molecule `CN1CCC(=C2c3ccc(Cl)cc3C(=O)Cc3cccnc32)CC1`, the melting point was in the range of 181 to 183 °C.

The molecule `N#CCN1CC[C@@H](NCc2ccccc2)[C@H](O)C1` (relative stereo) registered a melting point of 113 °C.

For `C=C1CC2C3CCC4=CC(=O)CCC4(C)C3=CCC2(C)C1(O)C(C)=O` (configuration not stated), the melting point lay in the range of 147 to 162 °C.

In turn, `CSc1nn2c(N3CCNCC3)cc(C(C)(C)C)nc2c1S(=O)(=O)c1ccccc1` came in with a melting point of 236 to 237 °C.

`COc1ccc(CN(C)CCc2ccc(NC(=O)c3cccc4c(=O)c5c(OC)ccc(OC)c5[nH]c34)cc2)cc1OC` showed a melting point of 196 °C.

Take `CCCCCOC(=O)Cc1nc(-c2ccc(F)cc2)oc1-c1ccsc1`: the melting point was 78 to 80 °C.

As to `Cc1oc2ccccc2c1C(=O)N(Cc1ccccc1)Cc1ccc2c(Br)c(OCC#N)ccc2c1`, the melting point was 145 to 146 °C.

Regarding `CC(=O)NCc1nnc(S)s1`, the melting point lay within 200 to 203 °C.

As for `O=C(O)C1c2ccccc2Cc2ccccc21`, the melting point was 139 °C.

`NC(=S)c1ccc(C(=O)NCc2ccc(N3CC(C(=O)O)OC3=O)cc2)cc1` (configuration not stated) showed a melting point of 105 to 110 °C.

Molecule `Cc1cc(-c2nnn(C)n2)cc(C)c1OCCCCc1cc2cccnc2[nH]1` returned a melting point of 147 to 150 °C.

In turn, `CCOC(=O)C(CCC#N)(C(=O)OCC)c1ncc(Br)cc1[N+](=O)[O-]` came in with a melting point of 58 to 62 °C.

Regarding `CC(C)C[C@H](NC(=O)[C@H](Cc1c[nH]cn1)NC(=O)[C@H](Cc1cccc2ccccc12)NC(=O)OCc1ccccc1)[C@H](O)CO`, the melting point lay in the range of 176 to 178 °C.

The molecule `C/C(=C(\C#N)C(N)=S)N1CCCSCC1` displayed a melting point of 138 to 142 °C.

`CCCCC1(CCCC)N[C@@H](c2nc(-c3ccccc3)c[nH]2)Cc2c1sc1ccccc21` registered a melting point of 198 to 200 °C.

`Clc1ccc2c(c1)C(c1ccccc1)=Nc1cccnc1N2` gave a melting point of 156 to 158 °C.

`COC(=O)CCC1OC(=O)C(O)=C1c1ccccc1` (configuration not stated) had a melting point of 135 to 136 °C.

Turning to `C=CCc1cc2c(c(CC=C)c1O)OCC(=O)N2CC=C`, the melting point was 91 to 92 °C.

As to `COCCc1ccc(OCC(O)CNC2CCc3ccccc3C2)cc1` (configuration not stated), the melting point was 95 to 97 °C.

For the molecule `O=C(/C=C/c1ccc2cc[nH]c2c1)CC(=O)/C=C/c1cc(O)ccc1Br`, the melting point fell in the range of 196 to 200 °C.

`O=C(Nc1ccc(OCc2ccncc2)c2ccccc12)c1cc(F)cc(OC2CCCCC2)c1` registered a melting point of 176 to 178 °C.

`CN(C(=O)Cc1ccccc1)c1nn(C)c(-c2ccc(F)cc2)c1-c1ccncc1`: the melting point lay in the range of 170 to 171 °C.

`O=C1CCC(c2ccccc2)(c2ccccc2)[C@@H]2CN(C(=O)Cc3ccc(F)cc3)C[C@H]12` (racemic) displayed a melting point of 210 °C.

In the case of `CC(NC(=O)Cc1cc(F)cc(F)c1)C(=O)NC1C(=O)NCc2ccccc21` (configuration not stated), the melting point fell in the range of 243 to 244 °C.

On to `COc1ccc(CCNC(=O)Cc2ccc(C(=O)c3ccccc3)cc2)cc1OC`, for which the melting point is 113 to 114 °C.

For the molecule `CC(C)(C)n1nnc(-c2ccccc2-c2cccc3ccccc23)n1`, the melting point was in the range of 83 to 85 °C.

For `CC(C)(C)c1cc(C=O)c(O)c(Br)c1Cl`, the melting point was in the range of 92 to 94 °C.

`CCOC(=O)C(=O)Nc1ccc(NC(=O)C(=O)OCC)c(C#N)c1` yielded a melting point of 140 to 141 °C.

As to `CC(=O)Nc1cccc(OC(Cn2ccnc2)c2ccc(Cl)cc2Cl)c1` (configuration not stated), the melting point was in the range of 108 to 112 °C.

In turn, `CCOC(=O)C(C)N1c2ccccc2Sc2ccc(C#N)cc21` (racemic) yielded a melting point of 117 to 118 °C.

The molecule `CCCCc1noc(-c2cccc(NC(=O)N(C)C)c2)n1` displayed a melting point of 108 to 110 °C.

Molecule `Cc1ccc(S(=O)(=O)C2(CCCC#Cc3cccnc3)SC(=O)NC2=O)cc1` (configuration not stated) displayed a melting point of 173 to 176 °C.

Consider `CC(C)C(NC(=O)c1ccc(-c2ccccc2)cc1)C(=O)O` (configuration not stated), for which the melting point is 168 °C.

With `Cn1c(=O)cc(-c2cccc(Cl)c2)c2cccnc21`, the melting point is 168 to 170 °C.

The molecule `Nc1cc(Cl)cc(Cl)c1C(=O)NCc1cccc(F)c1` gave a melting point of 79 to 81 °C.

The molecule `C=C1C[C@]2(C)C(=O)CC[C@H]2[C@@H]2CCC3=CC(=O)CC[C@]3(C)[C@@H]12` yielded a melting point of 157 to 160 °C.

`CCOC(=O)Cn1c(=O)c2cc(Cl)ccc2n(Cc2ccc(Cl)cc2)c1=O` returned a melting point of 137 to 138 °C.

With `Cc1cc(I)cc2c1oc(=O)n2C`, the melting point fell in the range of 100 to 101 °C.

On to `Cc1cc(C)cc(COC2CCC(N)(c3ccccc3)C(OCc3cc(C)cc(C)c3)C2)c1` (configuration not stated), for which the melting point lay within 103 to 105 °C.

`CCCCCCCCCCCCCCCCCCC1CNCCNCCNCCNCCN1` (configuration not stated): the melting point lay in the range of 99 to 100 °C.

In turn, `O=C(O)COc1ccc(Cl)c2c(=O)c3ccccc3sc12` returned a melting point of 230 to 232 °C.
